What was measured:
[1] = molecular target: Microtubule-associated serine/threonine-protein kinase 1 (Homo sapiens) (UniProt Q9Y2H9); assay: Binding affinity to wild-type human partial length MAST1 (S346 to V730 residues) expressed in mammalian expression system assessed as residual binding level at 10 uM by Kinomescan method relative to control
[2] = molecular target: Phosphorylase b kinase gamma catalytic chain, liver/testis isoform (Homo sapiens) (UniProt P15735); assay: Binding affinity to wild-type human partial length PHKG2 (M1 to W300 residues) expressed in bacterial expression system assessed as residual binding level at 10 uM by Kinomescan method relative to control
[3] = molecular target: Mitogen-activated protein kinase kinase kinase 12 (DLK) (Homo sapiens) (UniProt Q12852); assay: Binding affinity to wild-type human full length DLK (M1 to P859 residues) expressed in mammalian expression system assessed as residual binding level at 10 uM by Kinomescan method relative to control
[4] = molecular target: Cytoplasmic tyrosine-protein kinase BMX (Homo sapiens) (UniProt P51813); assay: Binding affinity to wild-type human full length BMX (M1 to H675 residues) expressed in bacterial expression system assessed as residual binding level at 10 uM by Kinomescan method relative to control
[5] = molecular target: Proto-oncogene tyrosine-protein kinase receptor Ret (Homo sapiens) (UniProt P07949); assay: Binding affinity to wild-type human partial length RET (E713 to D1014 residues) expressed in bacterial expression system assessed as residual binding level at 10 uM by Kinomescan method relative to control
[6] = molecular target: Phosphatidylinositol 4,5-bisphosphate 3-kinase catalytic subunit gamma isoform (Homo sapiens) (UniProt P48736); assay: Binding affinity to wild-type human partial length PIK3CG (S144 to A1102 residues) expressed in mammalian expression system assessed as residual binding level at 10 uM by Kinomescan method relative to control
[7] = molecular target: Serine/threonine-protein kinase Nek11 (Homo sapiens) (UniProt Q8NG66); assay: Binding affinity to wild-type human partial length NEK11 (M1 to E313 residues) expressed in mammalian expression system assessed as residual binding level at 10 uM by Kinomescan method relative to control
[8] = test system: Tyrosine-protein kinase ABL1 (Homo sapiens), P00519 [T315I]; assay: Binding affinity to human phosphorylated ABL1 T315I mutant (S229 to K512 residues) expressed in mammalian expression system assessed as residual binding level at 10 uM by Kinomescan method relative to control
[9] = molecular target: Ephrin type-B receptor 6 (Homo sapiens) (UniProt O15197); assay: Binding affinity to wild-type human partial length EPHB6 (Q634 to P948 residues) expressed in mammalian expression system assessed as residual binding level at 10 uM by Kinomescan method relative to control
[10] = molecular target: Casein kinase I isoform delta (Homo sapiens) (UniProt P48730); assay: Binding affinity to wild-type human full length CSNK1D (M1 to K409 residues) expressed in bacterial expression system assessed as residual binding level at 10 uM by Kinomescan method relative to control
[11] = test system: Mast/stem cell growth factor receptor Kit (Homo sapiens), P10721 [UNDEFINED MUTATION]; assay: Binding affinity to human partial length KIT V559D/V654 double mutant (Y545 to D952 residues) expressed in bacterial expression system assessed as residual binding level at 10 uM by Kinomescan method relative to control
[12] = molecular target: Dual specificity testis-specific protein kinase 1 (Homo sapiens) (UniProt Q15569); assay: Binding affinity to wild-type human full length TESK1 (R37 to S626 residues) expressed in bacterial expression system assessed as residual binding level at 10 uM by Kinomescan method relative to control
[13] = molecular target: Platelet-derived growth factor receptor beta (Homo sapiens) (UniProt P09619); assay: Binding affinity to wild-type human partial length PDGFRB (V582 to Y1009 residues) expressed in bacterial expression system assessed as residual binding level at 10 uM by Kinomescan method relative to control
[14] = molecular target: Serine/threonine-protein kinase DCLK1 (Homo sapiens) (UniProt O15075); assay: Binding affinity to wild-type human partial length DCAMKL1 (L270 to A662 residues) expressed in mammalian expression system assessed as residual binding level at 10 uM by Kinomescan method relative to control
[15] = test system: Proto-oncogene tyrosine-protein kinase receptor Ret (Homo sapiens), P07949 [V804L]; assay: Binding affinity to human partial length RET V804L mutant (E713 to D1014 residues) expressed in bacterial expression system assessed as residual binding level at 10 uM by Kinomescan method relative to control
[16] = test system: Epidermal growth factor receptor (Homo sapiens), P00533 [UNDEFINED MUTATION]; assay: Binding affinity to human partial length EGFR S752-I759del mutant expressed in bacterial expression system assessed as residual binding level at 10 uM by Kinomescan method relative to control
[17] = molecular target: Mitogen-activated protein kinase kinase kinase 4 (Homo sapiens) (UniProt Q9Y6R4); assay: Binding affinity to wild-type human partial length MAP3K4 (G1319 to E1608 residues) expressed in bacterial expression system assessed as residual binding level at 10 uM by Kinomescan method relative to control
[18] = molecular target: Serine/threonine-protein kinase N1 (Homo sapiens) (UniProt Q16512); assay: Binding affinity to wild-type human partial length PKN1 (E598 to C948 residues) expressed in bacterial expression system assessed as residual binding level at 10 uM by Kinomescan method relative to control
[19] = molecular target: Misshapen-like kinase 1 (Homo sapiens) (UniProt Q8N4C8); assay: Binding affinity to wild-type human partial length MINK (M1 to K312 residues) expressed in mammalian expression system assessed as residual binding level at 10 uM by Kinomescan method relative to control
[20] = molecular target: Mitogen-activated protein kinase kinase kinase 20 (Homo sapiens) (UniProt Q9NYL2); assay: Binding affinity to wild-type human partial length ZAK (M1 to L331 residues) expressed in bacterial expression system assessed as residual binding level at 10 uM by Kinomescan method relative to control
[21] = molecular target: Serine/threonine-protein kinase MRCK gamma (Homo sapiens) (UniProt Q6DT37); assay: Binding affinity to wild-type human partial length DMPK2 (S46 to S408 residues) expressed in bacterial expression system assessed as residual binding level at 10 uM by Kinomescan method relative to control
[22] = molecular target: Ribosomal protein S6 kinase alpha-4 (Homo sapiens) (UniProt O75676); assay: Binding affinity to wild-type human partial length N-terminal RPS6KA4 kinase domain 1 expressed in bacterial expression system assessed as residual binding level at 10 uM by Kinomescan method relative to control
[23] = molecular target: BMP-2-inducible protein kinase (Homo sapiens) (UniProt Q9NSY1); assay: Binding affinity to wild-type human partial length BIKE (S34 to N329 residues) expressed in bacterial expression system assessed as residual binding level at 10 uM by Kinomescan method relative to control
[24] = molecular target: Homeodomain-interacting protein kinase 2 (Homo sapiens) (UniProt Q9H2X6); assay: Binding affinity to wild-type human partial length HIPK2 (M153 to S564 residues) expressed in mammalian expression system assessed as residual binding level at 10 uM by Kinomescan method relative to control

Chain of Ephrin type-B receptor 6 (Homo sapiens) (O15197 whole entry, the tested form may be a part, canonical isoform): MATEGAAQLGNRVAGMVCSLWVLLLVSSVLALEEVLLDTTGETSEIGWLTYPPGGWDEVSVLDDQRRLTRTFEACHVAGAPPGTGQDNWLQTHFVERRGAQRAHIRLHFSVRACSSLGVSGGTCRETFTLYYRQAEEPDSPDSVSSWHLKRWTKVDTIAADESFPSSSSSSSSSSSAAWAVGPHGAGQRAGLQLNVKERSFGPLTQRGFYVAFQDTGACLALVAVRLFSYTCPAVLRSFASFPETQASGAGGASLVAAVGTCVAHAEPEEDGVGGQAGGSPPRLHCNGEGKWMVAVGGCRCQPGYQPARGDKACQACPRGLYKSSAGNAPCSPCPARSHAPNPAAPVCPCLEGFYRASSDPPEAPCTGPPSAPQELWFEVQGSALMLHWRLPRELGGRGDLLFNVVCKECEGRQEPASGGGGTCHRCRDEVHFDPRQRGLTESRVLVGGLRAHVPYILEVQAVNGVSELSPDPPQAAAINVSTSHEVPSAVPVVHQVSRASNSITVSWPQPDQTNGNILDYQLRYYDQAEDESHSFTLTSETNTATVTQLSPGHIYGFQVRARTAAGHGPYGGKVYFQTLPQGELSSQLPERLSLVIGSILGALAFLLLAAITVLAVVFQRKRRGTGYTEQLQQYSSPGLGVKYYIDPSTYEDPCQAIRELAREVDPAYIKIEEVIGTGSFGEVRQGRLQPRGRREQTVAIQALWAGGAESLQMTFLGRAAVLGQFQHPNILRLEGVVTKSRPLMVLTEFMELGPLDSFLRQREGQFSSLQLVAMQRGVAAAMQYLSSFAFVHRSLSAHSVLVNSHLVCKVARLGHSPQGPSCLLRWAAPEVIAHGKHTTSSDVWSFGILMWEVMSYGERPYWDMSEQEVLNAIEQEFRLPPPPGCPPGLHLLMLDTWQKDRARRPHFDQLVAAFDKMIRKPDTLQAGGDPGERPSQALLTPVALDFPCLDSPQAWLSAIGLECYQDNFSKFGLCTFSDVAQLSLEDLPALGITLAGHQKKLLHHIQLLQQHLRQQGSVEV
Chain of Proto-oncogene tyrosine-protein kinase receptor Ret (Homo sapiens) (P07949 whole entry, the tested form may be a part, canonical isoform): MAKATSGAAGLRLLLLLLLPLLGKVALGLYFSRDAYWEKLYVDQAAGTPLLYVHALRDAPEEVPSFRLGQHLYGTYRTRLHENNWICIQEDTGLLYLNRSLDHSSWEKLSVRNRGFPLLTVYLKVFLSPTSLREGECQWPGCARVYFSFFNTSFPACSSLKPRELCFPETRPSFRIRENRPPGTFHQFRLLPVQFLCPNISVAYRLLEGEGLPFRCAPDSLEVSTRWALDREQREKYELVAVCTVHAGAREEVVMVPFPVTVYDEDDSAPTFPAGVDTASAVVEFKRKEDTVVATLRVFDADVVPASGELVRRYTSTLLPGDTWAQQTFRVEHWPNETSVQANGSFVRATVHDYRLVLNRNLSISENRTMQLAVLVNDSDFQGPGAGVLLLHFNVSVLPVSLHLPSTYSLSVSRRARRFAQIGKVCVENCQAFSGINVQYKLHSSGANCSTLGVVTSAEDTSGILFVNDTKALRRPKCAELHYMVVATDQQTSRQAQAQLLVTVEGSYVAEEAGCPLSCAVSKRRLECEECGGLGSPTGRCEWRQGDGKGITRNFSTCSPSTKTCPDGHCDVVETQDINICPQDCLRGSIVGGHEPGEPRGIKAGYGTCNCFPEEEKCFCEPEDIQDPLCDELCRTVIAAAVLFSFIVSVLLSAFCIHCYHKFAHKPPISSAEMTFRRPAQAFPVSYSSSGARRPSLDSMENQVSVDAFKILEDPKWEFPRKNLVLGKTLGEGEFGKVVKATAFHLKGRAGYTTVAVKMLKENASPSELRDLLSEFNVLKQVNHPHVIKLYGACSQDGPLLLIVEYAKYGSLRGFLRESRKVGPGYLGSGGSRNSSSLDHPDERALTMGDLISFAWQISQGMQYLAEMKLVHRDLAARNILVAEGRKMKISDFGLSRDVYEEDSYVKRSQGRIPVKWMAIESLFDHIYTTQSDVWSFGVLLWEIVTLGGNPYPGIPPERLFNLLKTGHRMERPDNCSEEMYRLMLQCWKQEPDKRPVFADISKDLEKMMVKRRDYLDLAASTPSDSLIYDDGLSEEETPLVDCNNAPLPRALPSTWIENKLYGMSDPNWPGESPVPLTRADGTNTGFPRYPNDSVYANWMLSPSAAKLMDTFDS
Chain of Mitogen-activated protein kinase kinase kinase 20 (Homo sapiens) (Q9NYL2 2-800 limits assumed): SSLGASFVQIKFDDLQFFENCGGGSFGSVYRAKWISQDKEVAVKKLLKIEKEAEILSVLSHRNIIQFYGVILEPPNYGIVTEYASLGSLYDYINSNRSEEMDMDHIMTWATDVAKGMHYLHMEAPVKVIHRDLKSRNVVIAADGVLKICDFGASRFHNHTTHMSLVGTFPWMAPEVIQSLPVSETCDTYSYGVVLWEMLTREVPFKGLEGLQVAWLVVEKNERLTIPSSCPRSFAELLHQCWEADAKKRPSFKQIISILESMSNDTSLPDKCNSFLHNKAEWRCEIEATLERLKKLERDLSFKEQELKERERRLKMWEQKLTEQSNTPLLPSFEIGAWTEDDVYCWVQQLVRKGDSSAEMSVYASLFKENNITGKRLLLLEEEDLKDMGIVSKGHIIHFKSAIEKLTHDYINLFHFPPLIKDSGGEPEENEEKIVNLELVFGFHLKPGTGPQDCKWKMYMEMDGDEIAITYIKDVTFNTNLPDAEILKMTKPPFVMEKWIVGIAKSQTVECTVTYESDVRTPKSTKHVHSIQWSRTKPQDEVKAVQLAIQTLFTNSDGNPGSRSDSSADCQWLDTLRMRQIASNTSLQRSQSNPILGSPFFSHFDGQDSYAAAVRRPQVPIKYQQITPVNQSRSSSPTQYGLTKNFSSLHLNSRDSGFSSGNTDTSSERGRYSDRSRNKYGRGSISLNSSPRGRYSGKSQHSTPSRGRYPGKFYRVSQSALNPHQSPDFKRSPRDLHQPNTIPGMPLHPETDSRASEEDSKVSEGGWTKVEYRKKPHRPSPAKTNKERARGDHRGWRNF
Chain of Misshapen-like kinase 1 (Homo sapiens) (Q8N4C8 whole entry, looked up, the tested form may be a part): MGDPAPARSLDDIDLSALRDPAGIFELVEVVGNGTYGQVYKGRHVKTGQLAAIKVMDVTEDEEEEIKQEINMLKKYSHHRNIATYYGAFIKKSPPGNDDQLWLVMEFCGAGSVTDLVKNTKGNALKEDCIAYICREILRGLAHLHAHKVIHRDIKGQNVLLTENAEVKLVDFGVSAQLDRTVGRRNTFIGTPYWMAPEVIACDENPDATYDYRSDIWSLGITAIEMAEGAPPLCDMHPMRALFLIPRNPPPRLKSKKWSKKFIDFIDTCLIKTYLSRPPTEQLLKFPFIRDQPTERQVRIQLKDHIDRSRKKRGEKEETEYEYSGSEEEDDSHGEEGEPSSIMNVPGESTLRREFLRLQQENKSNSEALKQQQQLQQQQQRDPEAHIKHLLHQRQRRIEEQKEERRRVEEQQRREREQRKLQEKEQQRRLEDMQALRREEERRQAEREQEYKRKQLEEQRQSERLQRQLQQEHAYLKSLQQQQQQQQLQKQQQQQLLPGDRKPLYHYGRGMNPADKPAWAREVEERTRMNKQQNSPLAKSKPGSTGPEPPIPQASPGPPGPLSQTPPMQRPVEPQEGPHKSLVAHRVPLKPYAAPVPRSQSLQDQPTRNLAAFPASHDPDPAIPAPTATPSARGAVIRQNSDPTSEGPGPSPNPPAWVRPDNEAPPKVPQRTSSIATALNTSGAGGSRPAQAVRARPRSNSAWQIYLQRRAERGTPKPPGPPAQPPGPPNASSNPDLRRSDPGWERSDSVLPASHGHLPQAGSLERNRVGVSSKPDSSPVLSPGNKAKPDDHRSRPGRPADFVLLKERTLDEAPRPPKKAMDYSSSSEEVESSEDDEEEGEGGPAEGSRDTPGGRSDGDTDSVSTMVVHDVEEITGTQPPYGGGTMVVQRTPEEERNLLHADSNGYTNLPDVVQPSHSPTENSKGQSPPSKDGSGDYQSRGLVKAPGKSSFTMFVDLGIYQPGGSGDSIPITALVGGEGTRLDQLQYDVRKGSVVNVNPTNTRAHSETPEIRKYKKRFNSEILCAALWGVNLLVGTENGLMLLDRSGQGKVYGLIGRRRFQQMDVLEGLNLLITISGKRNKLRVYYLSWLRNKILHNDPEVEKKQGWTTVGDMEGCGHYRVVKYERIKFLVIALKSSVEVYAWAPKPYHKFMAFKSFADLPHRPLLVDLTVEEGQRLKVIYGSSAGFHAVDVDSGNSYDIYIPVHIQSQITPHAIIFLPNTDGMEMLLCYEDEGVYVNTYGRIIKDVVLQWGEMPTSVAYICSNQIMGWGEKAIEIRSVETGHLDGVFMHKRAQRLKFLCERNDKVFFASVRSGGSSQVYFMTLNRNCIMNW
Chain of Mitogen-activated protein kinase kinase kinase 12 (DLK) (Homo sapiens) (Q12852 whole entry, looked up, the tested form may be a part): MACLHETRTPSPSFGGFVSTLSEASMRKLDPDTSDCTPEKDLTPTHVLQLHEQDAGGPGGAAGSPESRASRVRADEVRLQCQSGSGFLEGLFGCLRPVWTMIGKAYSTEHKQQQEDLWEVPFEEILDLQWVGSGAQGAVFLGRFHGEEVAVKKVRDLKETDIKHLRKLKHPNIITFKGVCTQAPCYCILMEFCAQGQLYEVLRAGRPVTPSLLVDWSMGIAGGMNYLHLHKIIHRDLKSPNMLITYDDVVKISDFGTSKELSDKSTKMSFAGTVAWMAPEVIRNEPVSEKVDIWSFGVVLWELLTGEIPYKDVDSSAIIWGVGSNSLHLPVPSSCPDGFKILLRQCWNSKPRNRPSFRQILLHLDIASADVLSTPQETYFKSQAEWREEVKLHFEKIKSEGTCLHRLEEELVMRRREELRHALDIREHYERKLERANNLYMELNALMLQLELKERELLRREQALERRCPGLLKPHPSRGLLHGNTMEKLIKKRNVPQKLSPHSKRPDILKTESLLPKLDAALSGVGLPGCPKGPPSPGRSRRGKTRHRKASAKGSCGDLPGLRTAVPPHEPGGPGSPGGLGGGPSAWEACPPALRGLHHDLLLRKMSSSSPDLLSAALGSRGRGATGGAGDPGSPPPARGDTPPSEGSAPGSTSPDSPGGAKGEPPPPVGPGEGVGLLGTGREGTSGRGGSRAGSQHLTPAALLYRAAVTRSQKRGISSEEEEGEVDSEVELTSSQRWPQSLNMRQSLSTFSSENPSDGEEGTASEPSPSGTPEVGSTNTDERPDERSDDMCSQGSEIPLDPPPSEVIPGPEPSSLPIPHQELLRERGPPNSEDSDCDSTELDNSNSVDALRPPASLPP

CC(C)N1C(=O)C(NCCCN(C)C)=C(c2cn(C)c3ccccc23)C1=O.Cl
Activity [1]: 87%
Activity [2]: 100%
Activity [3]: 99%
Activity [4]: 97%
Activity [5]: 98%
Activity [6]: 70%
Activity [7]: 100%
Activity [8]: 90%
Activity [9]: 74%
Activity [10]: 100%
Activity [11]: 95%
Activity [12]: 82%
Activity [13]: 99%
Activity [14]: 94%
Activity [15]: 90%
Activity [16]: 97%
Activity [17]: 85%
Activity [18]: 100%
Activity [19]: 94%
Activity [20]: 84%
Activity [21]: 93%
Activity [22]: 100%
Activity [23]: 94%
Activity [24]: 100%

Reference: ChEMBL document CHEMBL4304811, “Development of a Water-Soluble Indolylmaleimide Derivative IM-93 Showing Dual Inhibition of Ferroptosis and NETosis” (ACS Med Chem Lett, 2019)
